Conditions: rat, in vivo
Experimental: Female Sprague-Dawley rats (Harlan Sprague-Dawley, Indianapolis, Ind.), weighing 250-300 grams each were given free access to food and water before the experiment. The animals were anesthetized with ketamine (80 mg/kg) and xylazine (10 mg/kg). Brain temperatures were monitored using a rectal thermometer. The animals' body temperature was maintained at 37° C. by using a water-jacketed heating pad. Brain temperature was monitored for 1 hour prior to injury to 6 hours following injury and was recorded at 30-minute intervals.
Young adult female Sprague-Dawley rats received a spinal cord contusion using the Precision Systems and Instrumentation, LLC (Fairfax Station, Va.) pneumatic impactor. Prior to surgery, rats were assigned to different treatment groups based on a randomized block design so that on any given surgery day all treatment groups were included. The rats were anesthetized with ketamine (80 mg/.kg) and xylazine (10 mg/kg) before laminectomy was performed at the 10th thoracic vertebra (T10). The vertebral column was stabilized with angled clamps on the upper thoracic (T8) and lumber (T11) levels and the impactor with a tip diameter of 2 mm was delivered at approximately 150 kdynes onto the exposed, intact dura overlying the dorsal spinal cord. The impactor was immediately removed, the wound irrigated with saline and the muscle and skin openings sutured together.
Two hours following injury, 0.8% magnesium in 3350 formulations was administered by intravenous infusion of 5 mL/kg over a 30-min period. For repeated infusions, an interval of 6 hours was used between infusions and the right jugular vein was cannulated with PE 50 tubing. The cannula was secured through the back of the neck and capped between infusion periods. Animals were re-anesthetized for re-administration of compounds. The contents of the infusion vials were blinded to the investigators performing both the infusions and the analyses.
At various time points after infusion, cerebrospinal fluid and/or blood samples and/or spinal cord tissue with and without the injury site were collected. […]
Serum and CSF samples were analyzed for magnesium concentrations by the Clinical Pathology Department at WIL Research Laboratories, LLC, 1407 George Road, Ashland, Ohio 44805. […] The formation of the chromophore (and consequently a reduction of the xylidyl blue) is proportional to the concentration of Mg^2+, measured by the instrument as a decrease in the xylidyl blue absorbance (600 nm). […]
Tissue and plasma concentrations of PEG-3350 in rat plasma were measured using a validated high performance liquid chromatograpy tandem mass spectrometry (HPLC/MS/MS) method in positive electrospray ionization mode. […] The samples were analyzed with an HPLC/MS/MS assay using a Thermo Hypersil ODS column. […]

| Molecule | time for PEG plasma level to decrease to baseline level post-infusion [min] | time at which Cmax of PEG plasma level was observed (iv) | time for Magnesium serum level to decrease to baseline level post-infusion [min] | time at which Cmax of Magnesium serum level was observed (iv) |
| --- | --- | --- | --- | --- |
| polyethylene glycol [PEG] | 30 to 60 | at the end of the infusion | – | – |
| [Mg+2] [Magnesium, magnesium] | – | – | 30 to 60 | at the end of the infusion |

— patent US9244060B2, “Site localization and methods for monitoring treatment of disturbed blood vessels” (Warsaw Orthopedic, Inc., priority 2009, dated 2016)
